Assay results published in the supplement of paper PMC10307832.

Experiments:
Assay in all cases: relative viability (nuclei count vs DMSO), 5 days (fraction); higher = more cells survive
Erlotinib + Luminespib = compound: C#Cc1cccc(Nc2ncnc3cc(OCCOC)c(OCCOC)cc23)c1 [Erlotinib] + CCNC(=O)c1noc(-c2cc(C(C)C)c(O)cc2O)c1-c1ccc(CN2CCOCC2)cc1 [Luminespib] (partner 0.01 µM)
How it was run: (§1)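 Nuclei were stained with Hoechst during a one-step fixation (final 0.05% Triton X-100, 1% formaldehyde, 1 ug/ml Hoechst) carried out 5 days after dosing, then counted on 4× images. The cells, lung cancer lines in 1536-well plates, had been dosed by pin tool the day after seeding with one drug alone or a fixed anchor-drug dose plus five library-drug doses (not always all listed) in √10 steps. Relative viability is the nuclei count in treated wells divided by that in vehicle wells, and each value is the median of duplicate plates.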

Erlotinib + Palbociclib = compound: C#Cc1cccc(Nc2ncnc3cc(OCCOC)c(OCCOC)cc23)c1 [Erlotinib] + CC(=O)c1c(C)c2cnc(Nc3ccc(N4CCNCC4)cn3)nc2n(C2CCCC2)c1=O [Palbociclib] (partner 0.5 µM)
How it was run: as §1

Erlotinib + Dasatinib = compound: C#Cc1cccc(Nc2ncnc3cc(OCCOC)c(OCCOC)cc23)c1 [Erlotinib] + Cc1nc(Nc2ncc(C(=O)Nc3c(C)cccc3Cl)s2)cc(N2CCN(CCO)CC2)n1 [Dasatinib] (partner 0.075 µM)
How it was run: as §1

Erlotinib + Crizotinib = compound: C#Cc1cccc(Nc2ncnc3cc(OCCOC)c(OCCOC)cc23)c1 [Erlotinib] + C[C@@H](Oc1cc(-c2cnn(C3CCNCC3)c2)cnc1N)c1c(Cl)ccc(F)c1Cl [Crizotinib] (partner 1 µM)
How it was run: as §1

AT9283 + Navitoclax = compound: O=C(Nc1c[nH]nc1-c1nc2ccc(CN3CCOCC3)cc2[nH]1)NC1CC1 [AT9283] + CC1(C)CCC(c2ccc(Cl)cc2)=C(CN2CCN(c3ccc(C(=O)NS(=O)(=O)c4ccc(N[C@H](CCN5CCOCC5)CSc5ccccc5)c(S(=O)(=O)C(F)(F)F)c4)cc3)CC2)C1 [Navitoclax] (partner 0.5 µM)
How it was run: as §1

Cell Line | relative viability (Erlotinib + Luminespib; first compound 0.02 µM) | relative viability (Erlotinib + Luminespib; first compound 0.2 µM) | relative viability (Erlotinib + Luminespib; first compound 0.6325 µM) | relative viability (Erlotinib + Luminespib; first compound 2 µM) | relative viability (Erlotinib + Palbociclib; first compound 0.02 µM) | relative viability (Erlotinib + Palbociclib; first compound 0.2 µM) | relative viability (Erlotinib + Palbociclib; first compound 0.6325 µM) | relative viability (Erlotinib + Palbociclib; first compound 2 µM) | relative viability (Erlotinib + Dasatinib; first compound 0.02 µM) | relative viability (Erlotinib + Dasatinib; first compound 0.2 µM) | relative viability (Erlotinib + Dasatinib; first compound 0.6325 µM) | relative viability (Erlotinib + Dasatinib; first compound 2 µM) | relative viability (Erlotinib + Crizotinib; first compound 0.02 µM) | relative viability (Erlotinib + Crizotinib; first compound 0.2 µM) | relative viability (Erlotinib + Crizotinib; first compound 0.6325 µM) | relative viability (AT9283 + Navitoclax; first compound 0.003 µM) | relative viability (AT9283 + Navitoclax; first compound 0.03 µM) | relative viability (AT9283 + Navitoclax; first compound 0.09487 µM) | relative viability (AT9283 + Navitoclax; first compound 0.3 µM) | relative viability (Erlotinib + Crizotinib; first compound 2 µM)
NCI-H1755 | 0.412 | 0.432 | 0.536 | 0.413 | 0.454 | 0.449 | 0.446 | 0.458 | 0.451 | 0.409 | 0.386 | 0.433 | 0.889 | 0.888 | 0.904 | 0.988 | 0.876 | 0.482 | 0.281 | –
LU99A | 0.27 | 0.257 | 0.231 | 0.223 | 0.466 | 0.421 | 0.38 | 0.327 | 0.556 | 0.474 | 0.584 | 0.475 | 0.612 | 0.607 | 0.64 | 0.766 | 0.243 | 0.142 | 0.151 | 0.432
LCLC-97TM1 | 0.901 | 0.798 | 0.948 | 0.824 | 0.234 | 0.243 | 0.256 | 0.194 | 0.749 | 0.794 | 0.967 | 0.782 | 0.44 | – | 0.376 | 0.335 | 0.117 | 0.107 | 0.144 | 0.487
NCI-H1666 | 0.969 | 0.941 | 1.01 | 0.713 | 0.624 | 0.613 | 0.631 | 0.74 | – | 0.759 | 0.828 | 0.64 | 1.02 | 0.856 | 0.66 | 1.08 | 0.885 | 0.432 | 0.315 | 0.428
NCI-H2347 | 1.25 | 0.557 | 0.441 | 0.902 | 0.432 | 0.415 | 0.429 | 0.468 | 0.371 | 0.309 | 0.289 | 0.296 | 0.678 | 0.595 | 0.723 | 0.93 | 0.764 | 0.368 | 0.267 | 0.646
NCI-H441 | 0.259 | 0.32 | 0.345 | 0.345 | 0.196 | 0.212 | 0.177 | 0.186 | 0.651 | 0.554 | 0.508 | 0.61 | 0.831 | 0.751 | 0.772 | 0.432 | 0.433 | 0.255 | 0.204 | 0.677
EPLC-272H | 0.176 | 0.233 | 0.326 | 0.196 | 0.337 | 0.307 | 0.278 | 0.279 | 0.461 | 0.217 | 0.358 | 0.279 | 0.911 | 0.957 | 0.884 | 0.984 | 1.05 | 1.1 | 0.138 | 0.596
NCI-H647 | 0.218 | 0.119 | 0.142 | 0.0816 | 0.417 | 0.307 | 0.562 | 0.316 | 0.274 | 0.117 | 0.221 | 0.144 | 1.2 | 1.09 | 1.26 | 1.03 | 0.542 | 0.125 | 0.0857 | 0.811
NCI-H23 | 0.218 | – | 0.202 | 0.217 | 0.571 | 0.447 | 0.453 | 0.509 | 0.876 | – | 0.928 | 0.698 | 0.565 | 0.481 | 0.601 | 0.741 | 0.538 | 0.423 | 0.174 | 0.433
NCI-H727 | 0.345 | – | 0.3 | 0.191 | 0.615 | 0.513 | 0.586 | 0.476 | 0.308 | – | 0.295 | 0.322 | 0.736 | 0.725 | 0.574 | 0.532 | 0.235 | 0.154 | 0.11 | 0.552
EKVX | 0.833 | 0.615 | 0.444 | 0.207 | 0.348 | 0.191 | 0.205 | 0.115 | 0.544 | 0.242 | 0.321 | 0.223 | 1.04 | 0.457 | 0.287 | 0.697 | 0.861 | 0.435 | 0.264 | 0.147
NCI-H2087 | 0.253 | 0.15 | 0.224 | 0.152 | 0.238 | 0.246 | 0.212 | 0.226 | 0.799 | 0.821 | 0.923 | 0.735 | 0.882 | 1.06 | 0.871 | 0.985 | 0.713 | 0.273 | 0.186 | 0.849
SK-LU-1 | 0.21 | 0.208 | 0.188 | 0.202 | 0.372 | 0.432 | 0.376 | 0.357 | 0.185 | 0.211 | 0.186 | 0.164 | 1.26 | 0.914 | 0.834 | 1.13 | 0.415 | 0.178 | 0.18 | 0.727
NCI-H322M | 0.806 | 0.595 | 0.528 | 0.443 | 0.401 | 0.431 | 0.378 | 0.426 | 0.231 | 0.246 | 0.257 | 0.238 | 0.786 | 0.707 | 0.668 | 1.27 | 0.802 | 0.731 | 0.436 | 0.322
NCI-H2085 | 0.412 | 0.352 | 0.308 | 0.339 | 0.465 | 0.44 | 0.379 | 0.381 | 0.235 | 0.2 | 0.266 | 0.249 | 0.794 | 0.835 | 0.739 | 1.05 | 0.815 | 0.671 | 0.244 | 0.57
NCI-H1915 | 0.819 | 0.777 | 0.908 | 0.725 | 0.522 | 0.526 | 0.599 | 0.502 | 0.338 | 0.376 | 0.327 | 0.273 | 0.948 | 0.832 | 0.919 | 0.657 | 0.72 | 0.504 | 0.174 | 0.86
